Among the data in ChEMBL document CHEMBL1140565, “Dipeptidyl alpha-fluorovinyl Michael acceptors: synthesis and activity against cysteine proteases” (Bioorg Med Chem Lett, 2007) are inhibition values, retold here.

SMILES strings stand for the structures.

Assay [1] has as its system Leishmania mexicana. Briefly: Inhibition of Leishmania mexicana cysteine protease CBP2.8deltaCTE at 2 ug/mL.
For assay [2], the system named is Leishmania mexicana. Nature of the assay: Inhibition of Leishmania mexicana cysteine protease CBP2.8deltaCTE at 20 ug/mL.

As to `CC(C)(C)OC(=O)N[C@@H](Cc1ccccc1)/C(SCCc1ccccc1)=C(\F)S(=O)(=O)c1ccccc1`, the inhibition came to 1.1% in assay [1] and 38.7% in assay [2].
For `CC(C)(C)OC(=O)N[C@@H](Cc1ccccc1)/C(SCCc1ccccc1)=C(/F)S(=O)(=O)c1ccccc1`, in that order: 0% and 15.1%.
`O=C(N[C@H](/C=C/S(=O)(=O)c1ccccc1)Cc1ccccc1)[C@H](Cc1ccccc1)NC(=O)N1CCOCC1`: the figures for the inhibition in assay [1] and in assay [2] were 71.3% and 97%, respectively.

As a reminder, the inhibition is the relative decrease from the control value, in per cent. A low value points to little suppression.
